# Measurements as given in US20050203068A1, “Pharmaceutical compositions containing water-soluble prodrugs of propofol and methods of administering same” (priority 2002, published 2005).
# Structures can show the parent of a compound that is named as a salt.
# What was measured:
# healthy male volunteers = experiment: Target controlled infusion (TCI) of AQUAVAN vs propofol: EEG, loss/recovery of consciousness and corneal reflex; format: in vivo, human; conditions: for Time to LOCR (loss of corneal reflex) / Time to ROC (recovery of consciousness) / Time to ROCR (recovery of corneal reflex) / Time to LOC (loss of consciousness): TCI infusion 60 min, propofol targets 5, 3, 1.5 micrograms/ml; for Time to LOC (loss of consciousness): time after start of infusion
# Protocol: This example compares the effects of target controlled infusions (TCI) of propofol and of O-phosphonooxymethyl propofol disodium salt (AQUAVAN™) on electrical brain activity and consciousness of healthy male volunteers. A sterile solution was prepared in a 20 mL vial, with 20 mg/mL of AQUAVAN™ and 0.4 wt % NaCl. The pH of the solution was adjusted to 8.6±0.4 with HCl or NaOH, as needed.
# Nine male volunteers (age 19 to 35 yrs., body wt. 70 to 86 kg) received propofol as a target controlled infusion (TCI) with three different target concentrations over 60 min. After a washout period of 14 days, the same volunteers received a TCI infusion of AQUAVAN™ with identical propofol target concentrations (crossover design). The infusion scheme was a linear increasing propofol concentration up to 5 micrograms/ml for the first 20 minutes, a target of 3 micrograms/ml for the following 20 minutes, and a target propofol plasma concentration of 1.5 micrograms/ml for the following 20 minutes. At 60 minutes, the infusion was stopped.
# The EEG was recorded using the CATEEM® system and the data analysis was based on the lead O1-CZ. All subjects were tested every 1.5 minutes for Loss and Recovery of Consciousness (LOC and ROC), and for Loss and Recovery of Corneal Reflex (LOCR and ROCR). Arterial blood samples were drawn at predetermined times up to 240 minutes after start of the infusion. The AQUAVAN™ and propofol plasma concentrations were measured with an LC/MS/MS validated assay and an HPLC-FL validated assay (see FIG. 1).
# healthy subjects [1] = experiment: Single bolus AQUAVAN, six cohorts: lowest OAA/S score and duration of sedation; format: in vivo, human
# Protocol: (§1) Twenty-four healthy subjects (all ASA 1, 25±5 yrs., 70±8 kg) were randomized into 4 cohorts, with 3 male and 3 female in each. Each of the four cohorts was given a single dose of the study formulation described in Table 1 above (5, 10, 20, and 25 mg/kg, AQUAVAN™ respectively). Anesthetic effect was measured continuously using a BIS-XP monitor (Aspect Medical Systems, Natick, Mass.). The lowest BIS level (BISpeak) was recorded. One week later, propofol was given to the same individuals at a rapid infusion rate of 300 ml/h to reach a similar BISpeak. Heart rate (HR), O2 saturation, systolic (SBP) and diastolic (DBP) blood pressure were monitored non-invasively. Incidence and duration of apnea, loss (LOC) and return (ROC) of consciousness and duration of unconsciousness (DOU) were measured with the OAA/S score. Adverse events were recorded. Statistical analysis was performed using Wilcoxon Signed Ranks Test, Mann-Whitney-U test, Chi-Square test and Pearson correlation where appropriate.
# In addition to induction of unconsciousness and duration of general anesthesia (see above), the response of the study subjects to AQUAVAN™ was also examined with regard to sedation. For this purpose, two additional cohorts (n=6 each) were dosed with 15 and 30 mg/kg of AQUAVAN™ as described above. For subjects in all six cohorts, the lowest OAA/S score achieved after AQUAVAN™ administration and the duration of sedation were recorded, with an OAA/S score of 5 indicating no sedation, scores ranging from 4-2 indicating increasingly deep sedated states, and a score of 1 indicating loss of consciousness (LOC)(but allowing for an undirected response to painful tactile stimuli). […] A conscious sedated state typically preceded and followed a period of unconsciousness in subjects who reached LOC. “Mean duration of sedation/LOC” in Table 4 refers to the total time interval from onset of sedation through LOC to recovery of alertness (no sedation).
# healthy volunteers = experiment: TCI infusion of AQUAVAN over 2 hours: alertness/sedation (OAA/S, BIS), haemodynamics, propofol plasma concentration
# Protocol: A sterile solution of AQUAVAN™ was prepared as described for Example 1, above.
# Six female (28±3 yrs, 57±4 kg body weight) and 6 male (32±6 yrs., 78±9 kg body weight) volunteers were studied. For a period of 2 hours, a TCI infusion of AQUAVAN™ was administered to provide adequate sedation. The initially selected target concentration of propofol from AQUAVAN™ was 1.8 μg/ml. Sedation was rated as adequate if according to a modified Observers Assessment of Alertness and Sedation Scale (OAA/S) the OAA/S scale value was 2 to 3. After 60 minutes, the target concentration was increased to 2.4 or 3 μg/ml if the OAA/S scale value was 4 or 5, respectively, or reduced to 1.4 μg/ml if the OAA/S scale value was 0 to 1. With an Aspect® A-1000 monitor and two frontal leads the BIS values were recorded. The ECG, blood pressure, heart rate, SaO2 and GPI as well as propofol plasma concentrations were measured. All values are given as mean±standard deviation.
# healthy subjects [2] = experiment: Single bolus AQUAVAN vs equipotent rapid infusion of propofol: anesthetic effect (BIS, LOC, ROC, DOU), adverse events; format: in vivo, human; conditions: for Pain on injection, incidence / Apnea, incidence / Initial increase in heart rate (HR>90 bpm), incidence: 24 subjects; for Pain on injection, incidence: all cohorts; for Apnea, incidence: dose-dependent; for Initial increase in heart rate (HR>90 bpm), incidence: following administration; for Initial increase in heart rate (HR>90 bpm), incidence / Time of BISpeak (lowest BIS level): p<0.05; for Time of BISpeak (lowest BIS level): AQUAVAN bolus 5-25 mg/kg, propofol rapid infusion 300 ml/h to similar BISpeak; for DOU (duration of unconsciousness) / Time to LOC / Time to ROC: n=6, mean ± SD
# Protocol: This example compares the pharmacodynamics of propofol when administered as a single, bolus dose of the prodrug O-phosphonooxymethyl-propofol di-sodium salt (AQUAVAN™) in accordance with the present invention, to the pharmacodynamics of propofol when administered as such. A sterile solution, the “study formulation,” was prepared in a 20 mL vial, with 20 mg/mL of AQUAVAN™ and 0.4 wt % NaCl. The pH of the solution was adjusted to 8.6±0.4 with HCl or NaOH, as needed.
# as §1
# patients = conditions: anesthetic induction doses of propofol; Bryson et al.; cited from earlier work
# [3] = Cohort 3 (20 mg/kg AQUAVAN bolus; propofol rapid infusion to similar BISpeak)
# [4] = Cohort 4 (25 mg/kg AQUAVAN bolus; propofol rapid infusion to similar BISpeak)
smiles,measurement,setting,value
"CC(C)c1cccc(C(C)C)c1OCOP(=O)(O)O [AQUAVAN, O-phosphonooxymethyl propofol disodium salt]",Time to LOCR (loss of corneal reflex),healthy male volunteers,16 ± 5 min
same,Time to ROC (recovery of consciousness),healthy male volunteers,73 ± 13 min
same,Time to ROCR (recovery of corneal reflex),healthy male volunteers,46 ± 15 min
same,Time to LOC (loss of consciousness),healthy male volunteers,9 ± 2 min
same,Decrease of Median Power Frequency (MPF) in the EEG,"healthy male volunteers; plasma propofol from AQUAVAN compared to plasma propofol from propofol, comparable plasma concentrations",greater decrease of the MPF
same,Duration - range,healthy subjects [1]; Cohort 1: 5 mg/kg bolus,0 to 16 min
same,Mean duration of sedation/LOC,healthy subjects [1]; Cohort 1: 5 mg/kg bolus,4.2 min
same,Duration - range,healthy subjects [1]; Cohort 2: 10 mg/kg bolus,0 to 24 min
same,Mean duration of sedation/LOC,healthy subjects [1]; Cohort 2: 10 mg/kg bolus,14 min
same,Duration - range,healthy subjects [1]; Cohort 3: 20 mg/kg bolus,22 to 45 min
same,Mean duration of sedation/LOC,healthy subjects [1]; Cohort 3: 20 mg/kg bolus,39.5 min
same,Duration - range,healthy subjects [1]; Cohort 4: 25 mg/kg bolus,42 to 78 min
same,Mean duration of sedation/LOC,healthy subjects [1]; Cohort 4: 25 mg/kg bolus,57.8 min
same,Duration - range,healthy subjects [1]; Cohort 5: 15 mg/kg bolus,18 to 34 min
same,Lowest OAA/S Score (subjects - score),healthy subjects [1]; Cohort 5: 15 mg/kg bolus,6/6 - 1 (LOC)
same,Mean duration of sedation/LOC,healthy subjects [1]; Cohort 5: 15 mg/kg bolus,22.6 min
same,Duration - range,healthy subjects [1]; Cohort 6: 30 mg/kg bolus,43 to 96 min
same,Mean duration of sedation/LOC,healthy subjects [1]; Cohort 6: 30 mg/kg bolus,54.3 min
same,State observed after bolus,healthy subjects [1]; bolus doses of 15 mg/kg and higher,induced unconscious states that varied in duration
same,State observed after bolus,healthy subjects [1]; dose ranges of 5-10 mg/kg,"Conscious sedation, but no loss of consciousness"
same,OAA/S scale value after 60 minutes,"healthy volunteers; TCI infusion, initial propofol target 1.8 μg/ml, mean±SD",3.7±1.1
same,Time after stopping the infusion to recovery to OAA/S scale value of 5,"healthy volunteers; after 2 hour TCI infusion, mean±SD",18 ± 3 min
same,Systolic BP after decrease,healthy volunteers; decreased from 134±14,106±10 mm Hg
same,BIS value,healthy volunteers; during the first hour of infusion (96±2 before infusion),74±13
same,BIS value,healthy volunteers; during the second hour of infusion,64±14
same,Heart rate increase,healthy volunteers; from 64±14 to 72±8,13%
same,Systolic BP decrease,healthy volunteers; from 134±14 to 106±10 mm Hg,21%
same,Heart rate after increase,healthy volunteers; increased from 64±14,72±8
same,Time after TCI target change until OAA/S scale value in target range of 2 to 3,"healthy volunteers; target changed at 60 minutes, mean±SD",4.2 ± 2.5 min
same,Loss of consciousness (LOC) reached,healthy subjects [2]; 5 mg/kg single bolus cohort,no LOC was reached
same,Loss of consciousness (LOC) reached,healthy subjects [2]; 10 mg/kg single bolus cohort,no LOC was reached
same,Loss of consciousness (LOC) reached,healthy subjects [2]; 20 mg/kg single bolus cohort,all subjects reached LOC
same,Loss of consciousness (LOC) reached,healthy subjects [2]; 25 mg/kg single bolus cohort,all subjects reached LOC
same,"Pain on injection, incidence",healthy subjects [2],only reported for propofol
same,"Apnea, incidence",healthy subjects [2],7 of 24
same,"Initial increase in heart rate (HR>90 bpm), incidence",healthy subjects [2],17 of the 24
same,Time of BISpeak (lowest BIS level),healthy subjects [2],630 ± 225 s
same,DOU (duration of unconsciousness),healthy subjects [2]; [3],1507 ± 914 s
same,Time to LOC,healthy subjects [2]; [3],157 ± 69 s
same,Time to ROC,healthy subjects [2]; [3],1664 ± 920 s
same,DOU (duration of unconsciousness),healthy subjects [2]; [4],2703 ± 267 s
same,Time to LOC,healthy subjects [2]; [4],162 ± 40 s
same,Time to ROC,healthy subjects [2]; [4],2865 ± 245 s
"CC(C)c1cccc(C(C)C)c1O [propofol, 2,6-diisopropylphenol]",Time to LOCR (loss of corneal reflex),healthy male volunteers,19 ± 6 min
same,Time to ROC (recovery of consciousness),healthy male volunteers,47 ± 10 min
same,Time to ROCR (recovery of corneal reflex),healthy male volunteers,32 ± 10 min
same,Time to LOC (loss of consciousness),healthy male volunteers,13 ± 2 min
same,"Respiratory consequences, including reduction in tidal volume and apnea: share of patients",patients,up to 83%
same,"Pain on injection, incidence",healthy subjects [2],10 of the 24
same,"Apnea, incidence",healthy subjects [2],10 of 24
same,"Initial increase in heart rate (HR>90 bpm), incidence",healthy subjects [2],4 of the 24
same,Time of BISpeak (lowest BIS level),healthy subjects [2],358 ± 315 s
same,DOU (duration of unconsciousness),healthy subjects [2]; [3],416 ± 94 s
same,Time to LOC,healthy subjects [2]; [3],184 ± 63 s
same,Time to ROC,healthy subjects [2]; [3],600 ± 105 s
same,DOU (duration of unconsciousness),healthy subjects [2]; [4],748 ± 245 s
same,Time to LOC,healthy subjects [2]; [4],208 ± 84 s
same,Time to ROC,healthy subjects [2]; [4],956 ± 294 s
